Tests used:
Btk [1] = target: T1, Btk (Homo sapiens (Human), UniProt Q06187); assay: Time Dependent Human Whole Blood IC50 Assay; type: cell-based; conditions: read-out: Assay C (IC50)
Btk [2] = target: T1, Btk; assay: Btk PBMC IC50 Cell Assay (anti-IgM-induced CD69 expression on B cells); type: cell-based; conditions: anti-IgM-induced CD69 expression on CD19 positive cells in human PBMCs;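 also: freshly isolated human PBMCs, IC50 from concentration-response of the share of CD19+ cells expressing CD69 after anti-IgM BCR stimulation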
full-length human BTK = full-length human BTK (Homo sapiens (Human), UniProt Q06187); assay: BTK IC50 Enzyme Assay (microfluidic off-chip mobility shift kinase assay); type: biochemical; conditions: Btk Enzymatic IC50 Assay, 90 min at 27 C;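 also: Read-out separates phosphorylated peptide product from substrate by their charge-to-mass difference, with IC50 fitted from log inhibitor concentration against percent enzyme activity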
Chain of full-length human BTK (Q06187 whole entry): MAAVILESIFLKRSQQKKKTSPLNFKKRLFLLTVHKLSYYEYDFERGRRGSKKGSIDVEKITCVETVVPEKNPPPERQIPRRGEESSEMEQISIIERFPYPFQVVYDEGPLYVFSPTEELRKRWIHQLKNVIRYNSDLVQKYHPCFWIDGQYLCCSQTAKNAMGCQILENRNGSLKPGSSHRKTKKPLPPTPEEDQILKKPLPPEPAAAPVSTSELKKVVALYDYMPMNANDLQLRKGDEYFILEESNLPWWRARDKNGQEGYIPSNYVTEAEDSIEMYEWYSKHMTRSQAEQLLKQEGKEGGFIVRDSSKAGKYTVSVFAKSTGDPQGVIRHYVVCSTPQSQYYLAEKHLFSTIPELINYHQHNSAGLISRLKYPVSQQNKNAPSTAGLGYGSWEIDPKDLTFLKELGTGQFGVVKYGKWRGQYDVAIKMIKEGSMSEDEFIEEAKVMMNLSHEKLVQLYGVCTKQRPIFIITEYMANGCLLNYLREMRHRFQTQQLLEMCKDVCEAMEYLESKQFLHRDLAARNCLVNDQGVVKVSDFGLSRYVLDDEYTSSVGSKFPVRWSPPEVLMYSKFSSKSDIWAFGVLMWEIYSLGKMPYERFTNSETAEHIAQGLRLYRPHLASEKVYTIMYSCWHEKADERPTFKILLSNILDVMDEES

T1 sequence (Q06187 whole entry): as above

| IC50 (Btk [1]) | IC50 (Btk [2]) | IC50 (full-length human BTK) | Compound |
| --- | --- | --- | --- |
| 1 to 10 nM | 1 to 10 nM | < 1 nM | Cc1c(-c2nc3c(-c4ccc5c(c4)CCCC[C@H]5NC(=O)c4nc(C(C)(C)C)no4)ccnc3[nH]2)cnn1C(C)C [Compound 160, 3-tert-Butyl-[1,2,4]oxadiazole-5-carboxylic acid {(R)-2-[2-(1-isopropyl-5-methyl-1H-pyrazol-4-yl)-3H-imidazo[4,5-b]pyridin-7-yl]-6,7,8,9-tetrahydro-5H-benzocyclohepten-5-yl}-amide] |
| 1 to 10 nM | 1 to 10 nM | < 1 nM | Cc1nn(C(C)C)c(C)c1-c1nc2c(-c3ccc4c(c3)CCCC[C@@H]4NC(=O)c3nc(C4(C)CC4)no3)ccnc2[nH]1 [Compound 2, N-[(5S)-2-[2-[3,5-dimethyl-1-(propan-2-yl)-1H-pyrazol-4-yl]-1H-imidazo[4,5-b]pyridin-7-yl]-6,7,8,9-tetrahydro-5H-benzo[7]annulen-5-yl]-3-(1-methylcyclopropyl)-1,2,4-oxadiazole-5-carboxamide] |
| > 100 nM | 1 to 10 nM | 1 to 10 nM | Cc1c(-c2nc3c(-c4ccc5c(c4)CCC[C@H]5NC(=O)c4noc(C(C)(C)C)n4)ccnc3[nH]2)cnn1C(C)C [Compound 164, 5-tert-Butyl-[1,2,4]oxadiazole-3-carboxylic acid {(R)-6-[2-(1-isopropyl-5-methyl-1H-pyrazol-4-yl)-3H-imidazo[4,5-b]pyridin-7-yl]-1,2,3,4-tetrahydro-naphthalen-1-yl}-amide] |
| 1 to 10 nM | 1 to 10 nM | < 1 nM | Cn1cc(-c2nc3c(-c4ccc5c(c4)CCCC[C@H]5NC(=O)c4cc(C5(C)CC5)on4)ccnc3[nH]2)cn1 [Compound 56, 5-(1-Methyl-cyclopropyl)-isoxazole-3-carboxylic acid {(R)-2-[2-(1-methyl-1H-pyrazol-4-yl)-3H-imidazo[4,5-b]pyridin-7-yl]-6,7,8,9-tetrahydro-5H-benzocyclohepten-5-yl}-amide] |
| 1 to 10 nM | 1 to 10 nM | < 1 nM | CCn1nc(C)c(-c2nc3c(-c4ccc5c(c4)CCCCC5NC(=O)c4nc(C5(C)CC5)no4)ccnc3[nH]2)c1C (stereo not drawn) [Compound 135, 3-(1-Methyl-cyclopropyl)-[1,2,4]oxadiazole-5-carboxylic acid {2-[2-(1-ethyl-3,5-dimethyl-1H-pyrazol-4-yl)-3H-imidazo[4,5-b]pyridin-7-yl]-6,7,8,9-tetrahydro-5H-benzocyclohepten-5-yl}-amide] |
| 1 to 10 nM | 1 to 10 nM | 1 to 10 nM | Cc1nn(C(C)C)cc1-c1nc2c(-c3ccc4c(c3)CCCCC4NC(=O)c3nc(C(C)(C)C)no3)ccnc2[nH]1 (stereo not drawn) [Compound 132, 3-tert-Butyl-[1,2,4]oxadiazole-5-carboxylic acid {2-[2-(1-isopropyl-3-methyl-1H-pyrazol-4-yl)-3H-imidazo[4,5-b]pyridin-7-yl]-6,7,8,9-tetrahydro-5H-benzocyclohepten-5-yl}-amide] |
| 1 to 10 nM | 1 to 10 nM | < 1 nM | Cc1nn(C(C)C)c(C)c1-c1nc2c(-c3ccc4c(c3)CCCC[C@H]4NC(=O)c3noc(C4(C)CC4)n3)ccnc2[nH]1 [Compound 33, 5-(1-Methyl-cyclopropyl)-[1,2,4]oxadiazole-3-carboxylic acid {(R)-2-[2-(1-isopropyl-3,5-dimethyl-1H-pyrazol-4-yl)-3H-imidazo[4,5-b]pyridin-7-yl]-6,7,8,9-tetrahydro-5H-benzocyclohepten-5-yl}-amide] |
| 10 to 100 nM | 1 to 10 nM | < 1 nM | CCc1cc(-c2nc3c(-c4ccc5c(c4)CCCCC5NC(=O)c4nnc(C(C)(C)C)o4)ccnc3[nH]2)nn1C (stereo not drawn) [Compound 131, 5-tert-Butyl-[1,3,4]oxadiazole-2-carboxylic acid {2-[2-(5-ethyl-1-methyl-1H-pyrazol-3-yl)-3H-imidazo[4,5-b]pyridin-7-yl]-6,7,8,9-tetrahydro-5H-benzocyclohepten-5-yl}-amide] |
| 1 to 10 nM | 1 to 10 nM | < 1 nM | Cc1cc(-c2nc3c(-c4ccc5c(c4)CCCC[C@H]5NC(=O)c4nnc(C(C)(C)C)o4)ccnc3[nH]2)nn1C [Compound 153, 5-tert-Butyl-[1,3,4]oxadiazole-2-carboxylic acid {(R)-2-[2-(1,5-dimethyl-1H-pyrazol-3-yl)-3H-imidazo[4,5-b]pyridin-7-yl]-6,7,8,9-tetrahydro-5H-benzocyclohepten-5-yl}-amide] |
| 1 to 10 nM | 1 to 10 nM | < 1 nM | Cc1c(-c2nc3c(-c4ccc5c(c4)CCC[C@@H]5NC(=O)c4noc(C(C)(C)C)n4)ccnc3[nH]2)cnn1C1CCOCC1 [Compound 157, 5-tert-Butyl-[1,2,4]oxadiazole-3-carboxylic acid ((S)-6-{2-[5-methyl-1-(tetrahydro-pyran-4-yl)-1H-pyrazol-4-yl]-3H-imidazo[4,5-b]pyridin-7-yl}-1,2,3,4-tetrahydro-naphthalen-1-yl)-amide] |
| 10 to 100 nM | 1 to 10 nM | < 1 nM | Cc1c(-c2nc3c(-c4ccc5c(c4)CCC[C@@H]5NC(=O)c4nc(C5(C)CC5)no4)ccnc3[nH]2)cnn1C1CCOCC1 [Compound 155, 3-(1-Methyl-cyclopropyl)-[1,2,4]oxadiazole-5-carboxylic acid ((S)-6-{2-[5-methyl-1-(tetrahydro-pyran-4-yl)-1H-pyrazol-4-yl]-3H-imidazo[4,5-b]pyridin-7-yl}-4-yl]-3H-imidazo[4,5-1,2,3,4-tetrahydro-naphthalen-1-yl)-amide] |
| 10 to 100 nM | 1 to 10 nM | < 1 nM | Cc1nn(C)c(C)c1-c1nc2c(-c3ccc4c(c3)CCCC[C@H]4NC(=O)c3nnc(C(C)(C)C)o3)ccnc2[nH]1 [Compound 121, 5-tert-Butyl-[1,3,4]oxadiazole-2-carboxylic acid {(R)-2-[2-(1,3,5-trimethyl-1H-pyrazol-4-yl)-3H-imidazo[4,5-b]pyridin-7-yl]-6,7,8,9-tetrahydro-5H-benzocyclohepten-5-yl}-amide] |
| 10 to 100 nM | 1 to 10 nM | < 1 nM | Cc1nn(C)c(C)c1-c1nc2nccc(-c3ccc4c(c3)CCCC[C@H]4NC(=O)c3cc(C(C)(C)C)on3)c2[nH]1 [Compound 72] |
| 10 to 100 nM | 10 to 100 nM | < 1 nM | Cc1cc(-c2nc3c(-c4ccc5c(c4)CCCC5NC(=O)c4nc(C(C)(C)C)no4)ccnc3[nH]2)nn1C (stereo not drawn) [Compound 107, 3-tert-Butyl-[1,2,4]oxadiazole-5-carboxylic acid {6-[2-(1,5-dimethyl-1H-pyrazol-3-yl)-3H-imidazo[4,5-b]pyridin-7-yl]-1,2,3,4-tetrahydro-naphthalen-1-yl}-amide] |
| 1 to 10 nM | 1 to 10 nM | < 1 nM | CC(C)(C)c1noc(C(=O)NC2CCCCc3cc(-c4ccnc5[nH]c(-c6cnn(C7CC7)c6)nc45)ccc32)n1 (stereo not drawn) [Compound 83, 3-tert-butyl-N-{2-[2-(1-cyclopropyl-1H-pyrazol-4-yl)-3H-imidazo[4,5-b]pyridin-7-yl]-6,7,8,9-tetrahydro-5H-benzo[7]annulen-5-yl}-1,2,4-oxadiazole-5-carboxamide] |
| > 100 nM | 1 to 10 nM | 1 to 10 nM | Cc1c(-c2nc3c(-c4ccc5c(c4)CCCC5NC(=O)c4nc(C(C)(C)C)no4)ccnc3[nH]2)cnn1C (stereo not drawn) [Compound 111, 3-tert-Butyl-[1,2,4]oxadiazole-5-carboxylic acid {6-[2-(1,5-dimethyl-1H-pyrazol-4-yl)-3H-imidazo[4,5-b]pyridin-7-yl]-1,2,3,4-tetrahydro-naphthalen-1-yl}-amide] |
